Columns and labels:
Type in all cases: physicochemical
[1] = Irradiation (24 h UV test, Ultra-Vitalux W300) of oil phase solutions, chromametric b* values; conditions: for b* value: after irradiation
Procedure: In order to examine to what extent the stability of the compound of the formula (IA) can be increased by predissolution in an oil phase to which an oil-soluble photoprotective filter of the formula (II) is added, irradiation experiments were conducted. The oil phase used was 2-ethylhexyl isononanoate (INCI: Ethylhexyl isononanoate). The amount of 4-(1-phenylethyl)-1,3-dihydroxybenzene (formula (IA) was in this case in a range from 10% to 20% by weight, based on the amount of oil phase. The amount of the photoprotective filter added for colour stabilization, 2-hydroxy-4-methoxybenzophenone (INCI: Benzophenone-3, formula (IIC)), was in each case 1% by weight. In order to examine to what extent the addition of a photoprotective filter of the formula (II) is advantageous, all of the samples were irradiated for 24 hours with light (light source: Ultra-Vitalux W300). For the measurement of any colour changes that occurred, all of the samples were subjected to chromametry both before and after irradiation to determine the b* values, which represent a measure of the shift in the blue-yellow axis and so give a direct indication of a yellow discoloration occurring.

[2] = pH series: aqueous-ethanolic solutions stored in the dark for 28 days, chromametric b* values; conditions: after 28 days, without disodium EDTA
Procedure: In order to examine to what extent the degradation and the associated yellow to brown discoloration of 4-(1-phenylethyl)-1,3-dihydroxybenzene (CARN: 85-27-8; formula (IA)) in cosmetic and pharmaceutical formulations is also influenced by the pH value of the preparation, serial pH experiments were conducted, by dissolving 4-(1-phenylethyl)-1,3-dihydroxybenzene (CARN: 85-27-8; formula (IA)) in aqueous/ethanolic solutions which had been adjusted to different pH values (pH 4, 5, 7 and 9, Table 2) using buffer solutions. The amount of 4-(1-phenylethyl)-1,3-dihydroxybenzene (CARN: 85-27-8; formula (IA)) was in each case 0.5 percent by weight. All of the samples were stored in the dark for 28 days at room temperature. In order to measure any colour changes occurring, all samples were subjected to chromametric determination, both at the beginning of the experiment and at the end of a storage time of 28 days, of the b* values, which represent a measure of the shift in the blue-yellow axis and therefore give a direct indication of any yellow discoloration occurring.

[3] = pH series with disodium EDTA: aqueous-ethanolic solutions stored in the dark for 28 days, chromametric b* values; conditions: after 28 days
Source text: The amount of 4-(1-phenylethyl)-1,3-dihydroxybenzene (CARN: 85-27-8; formula (IA)) was again in each case 0.5 percent by weight. The samples were likewise stored in the dark at room temperature for 28 days.

## CC(c1ccccc1)c1ccc(O)cc1O (stereo not shown) [4-(1-phenylethyl)-1,3-dihydroxybenzene]
[1]; reference specimen not stabilized with benzophenone-3
  b* value: 34.0
[1]; solution with 10 percent by weight, plus 1 percent benzophenone-3
  b* value: 10.3
[1]; solution with 15 percent by weight, plus 1 percent benzophenone-3
  b* value: 15.5
[1]; solution with 20 percent by weight, plus 1 percent benzophenone-3
  b* value: 10.6
[1]; light source Ultra-Vitalux W300, yellowish to brownish discoloration
  stability of solutions on irradiation with light: a certain instability
[2]; pH 4, 0.5% solution
  b* value: 2.0
[2]; pH 5, 0.5% solution
  b* value: 4.6
[2]; pH 7, 0.5% solution
  b* value: 19.4
[2]; pH 9, 0.5% solution
  b* value: 55.3
[3]; pH 4, 0.5% solution
  b* value: 1.5
[3]; pH 5, 0.5% solution
  b* value: 3.6
[3]; pH 7, 0.5% solution
  b* value: 14.8
[3]; pH 9, 0.5% solution
  b* value: 40.2

Reference: patent publication US20090130035A1, “STABILIZED PREPARATIONS COMPRISING PHENOLIC COMPOUNDS AND BENZOPHENONES” (SYMRISE GmbH & Co. KG, priority 2006, published 2009)
